# Test results from patent publication US8119640B2, “Hedgehog pathway antagonists methods of use” (The Board of Trustees of the Leland Stanford Junior …, priority 2008, dated 2012).
# What was measured:
# MAPK = details: NIH-3T3 cells, 10 μM U0126
# Description: NIH-3T3 cells were seeded into 6-well plates and grown to 80% confluency in DMEM containing 10% CS, 100 U/mL penicillin, and 0.1 mg/mL streptomycin. Cells were then serumstarved for 8 h in DMEM containing 0.5% CS and either DMSO, 15 μM HPI-1, 20 μM HPI-2, 30 μM HPI-3, or 30 μM HPI-4. 50 μM LY294002 and 10 μM U0126 were used as positive controls. After serum starvation, cells were stimulated with 10 ng/ml PDGF BB for 30 min, washed in PBS, and lysed in buffer containing 50 mM Tris HCl pH 7.4, 250 mM NaCl, 20 mM NaF, 2 mM sodium orthovanadate, 2 mM EDTA, 2 mM PMSF, 1% Triton X-100, and EDTA free protease inhibitor cocktail (Roche). Cell lysates were clarified by centrifugation at 20,000×g and total protein concentrations were determined by the BCA assay (Pierce). 15 μg of protein from each lysate was mixed with 6×SDS-PAGE sample buffer (300 mM Tris-HCl, pH 6.8 containing 60% glycerol, 12% SDS, 600 mM DTT, and 0.05% bromophenol blue), boiled for 17 5 min and then resolved on 4-12% Bis-Tris Criterion XT gels. The electrophoresed samples were transferred to PVDF membranes and blocked overnight in TBST buffer containing 5% BSA. […]
# Smo = Smo (Mus musculus, UniProt P56726); test: FRET assay for Smo multimerization (Smo-CFP/Smo-YFP); format: cell-based, murine; design: expressed in transfected cells; host or cells: NIH-3T3; details: 10 μM cyclopamine, 500 nM SAG, 10 μM HPIs
# Description: FRET assay for Smo multimerization. […] The cells were washed with PBS buffer, fixed with 4% paraformaldehyde for 20 min, and mounted on slides in 80% glycerol. Fluorescence signals were acquired with the 100× objective of a Zeiss LSM510 confocal microscope with the following conditions: CFP was excited by 458-nm light and the emission was collected through a BP 480-520-nm filter. YFP was excited by 514-nm light and the emission was collected through a BP 535-590-nm filter. The CFP signal was obtained before and after photobleaching YFP(CFPBP and CFPAP, respectively) using the full power of the 514-nm laser line for 1-2 min at the top half of each cell, leaving the bottom half unbleached as an internal control. The CFP fluorescence intensity was analyzed using Metamorph software (Universal Imaging Corp.), and the energy transfer efficiency was calculated using the formula: FRET %=((CFPAP−CFPBP)/CFPAP)×100. Photobleached areas in 11-19 cells were analyzed for each experimental condition.
# Hh pathway [1] = test: Shh-LIGHT2 assay for Hh pathway activation (Gli-dependent firefly luciferase); format: cell-based; details: 0.5 μM SAG versus Shh
# Description: Shh-LIGHT2 assay for Hh pathway activation and library screening conditions. h-N-conditioned medium was prepared as previously described. […] For 96-well plate assays, Shh-LIGHT2 cells were seeded into each plate (10,000 cells/well) and cultured to confluency. The Shh-LIGHT2 cells were then grown in DMEM containing 0.5% CS, 100 U/mL penicillin, 0.1 mg/mL streptomycin, either 5% Shh-N-conditioned medium or 500 nM SAG, and various concentrations of the HPIs. After the cells were cultured for another 30 h, the resulting firefly and Renilla luciferase activities were measured using a Dual Luciferase Reporter kit (Promega) and a Veritas microplate luminometer (Turner Biosystems).
# When the cells reached >90% confluency, they were removed by trypsinization and diluted to a final volume of 50 mL medium. This cell suspension was then plated into clear-bottom, white-walled 384-well plates using a Titertek Multidrop dispenser (50 μL/well) and the cells were cultured until they reached confluency (3-4 days). […] The plates were then placed into an automated Staccato system (Caliper Life Sciences), which includes an automated CO2 incubator. An automated protocol was then run, in 3 which a Multidrop dispenser added 10 μL of a SAG solution in 0.5% CS medium (final SAG concentration of 500 nM) to columns 1-22 and 100 nL of each compound solution was added to the plates using a V&P Scientific pin tool, resulting in a final compound screening concentration of 10 μM. The SAG-free wells were used as negative controls. After 28-32 h, the assay medium was manually removed and the plates were frozen. To assay the firefly luciferase activities, the plates were thawed and placed into a Twister II stacker in the Staccato system. Bright-Glo luciferase substrate (Promega) was added by the Multidrop dispenser and the plates were analyzed on an Analyst GT microplate reader (2 min in the dark, 0.2 sec integration/well; Molecular Devices). Hits were defined as compounds that reduce the firefly luciferase signal by at least 50% compared to inhibitor-free controls. Primary hits were then re-tested in duplicate in an eight-point, 1:1 serially diluted doseresponse curve with a starting concentration of 20 μM. In these experiments, the median inhibitory concentration (IC50) for both firefly and Renilla luciferase were determined using a Dual-Glo kit (Promega).
# Hh pathway [2] = test system: Hh pathway
# Description: SmoM2-LIGHT assay for Hh pathway activation. SmoM2-LIGHT cells (previously named SmoA1-LIGHT cells) were grown to 70-80% confluence in a 15-cm dish, trypsinized, and then resuspended in 40 mL of DMEM containing 10% FBS, 100 U/mL penicillin, and 0.1 mg/mL DMSO. This cell suspension was aliquoted into 96-well plates (150 μL/well), cultured overnight, and then treated with DMSO or various concentrations of the HPIs for 28 h. Cells were then washed once with PBS then treated with 50 μL of passive lysis buffer (Promega). Hh pathway-dependent firefly luciferase activity in the lysates was quantified using Bright-Glo reagent and a Veritas microplate luminometer. Constitutive β-galactosidase activity was measured using the Tropix Galacto-Star kit.
# FLAG-Gli2 = test: Analysis of Gli2 processing and Shh-dependent Gli2 stabilization; format: cell-based, mouse; details: Shh-EGFP FLAG-Gli2 cells, absence and presence of Shh, 24 h
# Description: Analysis of Gli2 processing and Shh-dependent Gli2 stabilization. […] Each compound incubation was also done in the absence and presence of 5% Shh-N-conditioned medium, and the cells were maintained under these conditions for 24 h. The cells were subsequently solubilized in lysis buffer (100 μL/well; 50 mM Tris-HCl, pH 7.4, 1% Triton X-100, 250 mM NaCl, 2 mM EDTA, 20 mM NaF, 2 mM Na3VO4, 2 mM 2-mercaptoethanol, EDTA-free protease inhibitor cocktail (Roche)). This suspension was transferred to a 1.5-mL centrifuge tube and incubated on ice for 30 min, with vortexing every 5 min. The cell lysates were then centrifuged at 20,000×g at 4° C. for 20 min. Supernatants were removed, and a BCA protein assay was performed to quantify protein levels. Mouse anti-FLAG M2 agarose slurry (20 μL, Sigma) was pelleted by centrifugation and incubated with 800 ng of protein from each condition for 90 min at 4° C. and then washed three times with 1 mL of wash buffer (75 mM Tris-HCl buffer, pH 8.0 containing 225 mM NaCl, 0.5% Triton X-100) and centrifuged at 2,300×g at 4° C. The agarose beads were suspended in 30 μL of 1×SDS-PAGE sample buffer (50 mM Tris-HCl, pH 6.8 containing 10% glycerol, 2% SDS, 50 mM DTT, 200 mM 2-mercaptoethanol, and 0.001% bromophenol blue), and the mixture was boiled for 5 min. The samples were then resolved on a 4-12% Bis-Tris Criterion XT gel and transferred to a PVDF membrane. The membrane was dehydrated with methanol, and then probed with rabbit anti-FLAG antibody (Sigma; 1:1,000 dilution in blocking buffer (PBS 21 containing 3% non-fat dried milk and 0.01% Tween 20)) for 90 min. […] Blots were washed 4×3 min in PBS, and the immunoreactive bands were detected with a SuperSignal West Dura kit and a ChemiDoc XRS system. Protein bands were quantified using Quantity One software (Bio-Rad). For each experiment, boxes of equal size were drawn around the FLAG-Gli2 and FLAG-Gli2R bands. Band intensities were then normalized to the average intensity for all bands in a given experiment. The results from all experiments were averaged and normalized relative to the basal level of FLAG-Gli2 (DMSO treatment without Shh-N-conditioned medium).
# Hh pathway [3] = details: β-galactosidase reporter
# Description: Ptch1^−/− fibroblast assay for Hh pathway activation Hh pathway activation in Ptch1^−/− fibroblasts was assayed as previously described, using the knocked-in β-galactosidase gene as a reporter for Hh target gene expression. Ptch1^−/− fibroblasts were grown to 70-80% confluence in a 15-cm dish, trypsinized, and then resuspended in 40 mL of DMEM containing 10% FBS, 100 U/mL penicillin, and 0.1 mg/mL DMSO. This cell suspension was aliquoted into 96-well plates (150 μL/well), cultured overnight, and then treated with DMSO or various concentrations of the HPIs for 28 h. […] The cells were then lysed in Tropix lysis solution (30 μL/well; Applied Biosystems) and β-galactosidase levels were quantified by a Tropix Galacto-Star kit (Applied Biosystems) on a Veritas microplate luminometer.
# Hh pathway [4] = test: Shh-EGFP assay for Hh pathway activation; format: cell-based; details: 3 μM cyclopamine; 15 μM HPI-1, 20 μM HPI-2, 30 μM HPI-3, 30 μM HPI-4
# Description: Shh-EGFP assay for Hh pathway activation. A Gli-dependent enhanced green fluorescent protein reporter (Shh-EGFP) was generated by excising firefly luciferase cDNA from the 8XGliBs vector using NcoI/Hpal, and ligating in EGFP cDNA excised from the pEGFP-C1 vector (Clontech) by NcoI/Af/II digestion. […] The cells were grown to confluency and treated with DMEM containing 0.5% CS, 100 U/mL penicillin, 0.1 mg/mL streptomycin, and 5% Shh-N-conditioned medium for 30 h. Following Shh-N treatment, the adherent cultures were dissociated into single cells with 0.05% Trypsin-EDTA (300 μL/well; Invitrogen) for 5 min. The cells were then suspended in 1 mL of PBS containing 1% CS and sorted on a BD FACSAria (excitation: 488 nm; emission: 530/30 nm) to enrich for cells expressing EGFP in a Shh-N-responsive manner. […] To identify Shh-EGFP clones with maximum Shh-N-responsiveness, individual lines were seeded into 24-well plates (45,000 cell/well) and cultured for 48 h. The cells were then treated with DMEM containing 0.5% CS, 100 U/mL pencillin, 0.1 mg/mL streptomycin or the culture medium plus 5% Shh-N-conditioned medium. After 30 h, the adherent cultures were treated with 0.05% trypsin-EDTA (150 μL/well; Invitrogen) for 5 min to dissociate them into single cells. The cells were then resuspended in 500 μL of PBS containing 1% CS and analyzed on a BD FACSCalibur (excitation: 488 nm; emission: 530/30 nm). 10,000 cells were used to assess EGFP expression levels as a measure of Hh pathway activation, and the data was analyzed using FlowJo software (Tree Star). Clones with low basal EGFP levels and maximum Shh-Ninduced EGFP expression were selected for further use. To assess the inhibitory activities of the HPIs in the Shh-EGFP cells, a clonal line with maximum Shh-responsiveness was cultured in 24-well plates as described above. […] The resulting EGFP levels were then evaluated by FACS and quantified using the FlowJo software.
# C3H10T(1/2) cells = test: C3H10T(1/2) assay for Hh pathway activation (alkaline phosphatase); format: cell-based
# Description: C3H10T(1/2) assay for Hh pathway activation. C3H10T(1/2) cells (ATCC) were plated into 96-well plates using DMEM containing 10% FBS, 100 U/mL penicillin, 0.1 mg/mL streptomycin, 5% Shh-N-conditioned medium, and various concentrations of the Hh pathway inhibitors. After approximately 40 h, the cells were washed with PBS and lysed in 50 μL of buffer containing 50 mM Tris-HCl, pH 9.5, 150 mM NaCl, 5 mM MgCl2, and 1% Triton X-100. Alkaline phosphatase activities in the cell lysates were quantified by adding 10 μL of the lysate to 50 μL of CDP-Star chemiluminescence reagent (Perkin Elmer) and measuring the resulting chemiluminescence on a Veritas microplate luminometer.
# Smo, sequence (P56726 33-793): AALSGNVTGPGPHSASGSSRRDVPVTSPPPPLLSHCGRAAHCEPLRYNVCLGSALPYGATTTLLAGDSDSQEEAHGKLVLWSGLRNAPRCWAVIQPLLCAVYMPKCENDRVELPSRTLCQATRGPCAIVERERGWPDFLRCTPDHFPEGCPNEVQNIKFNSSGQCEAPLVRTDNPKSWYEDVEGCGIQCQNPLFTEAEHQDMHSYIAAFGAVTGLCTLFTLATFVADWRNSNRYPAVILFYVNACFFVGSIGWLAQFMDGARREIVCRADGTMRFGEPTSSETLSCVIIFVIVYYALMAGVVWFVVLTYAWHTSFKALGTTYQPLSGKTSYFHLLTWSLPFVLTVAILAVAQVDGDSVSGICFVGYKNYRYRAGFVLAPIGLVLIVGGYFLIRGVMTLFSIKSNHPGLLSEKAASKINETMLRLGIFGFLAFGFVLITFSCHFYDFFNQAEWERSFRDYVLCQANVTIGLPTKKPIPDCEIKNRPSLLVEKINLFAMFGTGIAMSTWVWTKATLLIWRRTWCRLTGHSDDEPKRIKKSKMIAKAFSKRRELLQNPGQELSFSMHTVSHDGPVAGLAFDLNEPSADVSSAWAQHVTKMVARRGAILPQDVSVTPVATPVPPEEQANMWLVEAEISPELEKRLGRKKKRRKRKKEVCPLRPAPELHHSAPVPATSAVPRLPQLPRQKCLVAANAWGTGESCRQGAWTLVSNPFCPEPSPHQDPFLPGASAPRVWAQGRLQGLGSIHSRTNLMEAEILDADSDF
# Smo, sequence (P56726 33-793): as above
smiles,measurement,setting,value
N#CC(=C(/N)Sc1ccccc1N)/C(C#N)=C(\N)Sc1ccccc1N [Compound U0126],PDGF-induced phosphorylation of p44/p22 MAPK,MAPK,blocked p44/p22 MAPK phosphorylation
"CNC1CCC(N(Cc2cccc(-c3ccncc3)c2)C(=O)c2sc3ccccc3c2Cl)CC1 (centres unmarked) [SAG, reference compound]",Shh-induced fold change in Smo-CFP/Smo-YFP FRET,Smo,Shh-insensitive
"CC1=C2C[C@H]3[C@@H](CC=C4C[C@@H](O)CC[C@@]43C)[C@@H]2CC[C@]12O[C@@H]1C[C@H](C)CN[C@H]1[C@H]2C [cyclopamine, reference compound]",Inhibition of Hh pathway activation induced by 0.5 μM SAG,Hh pathway [1],resistant to inhibition
same,Inhibition of SmoM2-dependent Gli reporter expression in SmoM2-LIGHT cells,Hh pathway [2],significantly less potent
same,FLAG-Gli2 levels and processing (immunoblotting),FLAG-Gli2,can suppress the effects of Shh
same,Inhibition of Hh pathway activity in Ptch1-/- fibroblasts,Hh pathway [3],inhibit Hh pathway activity
same,"Fluorescence intensity of Shh-treated Shh-EGFP cells (FACS, words)",Hh pathway [4],fluorescence intensities similar to those of untreated cells
same,Block of Shh-induced differentiation of C3H10T(1/2) cells into osteoblasts,C3H10T(1/2) cells,block the Shh-induced differentiation
